{"source": "paper PMC11672137", "about": "“High-Affinity Lectin Ligands Enable the Detection of Pathogenic Pseudomonas aeruginosa Biofilms: Implications for Diagnostics and Therapy” (JACS Au, 2024)", "key": {"LecA [1]": {"biological_target": "T1, LecA (Pseudomonas aeruginosa, UniProt Q05097)", "T1 construct": "made in house", "conditions": "read-out: Kd by ITC; cited from earlier work"}, "LecB": {"biological_target": "T2, LecB (Pseudomonas aeruginosa, UniProt Q9HYN5)", "T2 construct": "made in house", "T2 sequence (Q9HYN5 entry or part of it)": "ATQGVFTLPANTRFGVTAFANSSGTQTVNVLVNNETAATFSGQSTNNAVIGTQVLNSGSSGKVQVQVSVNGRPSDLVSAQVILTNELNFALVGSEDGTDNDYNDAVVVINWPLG", "assay": "Competitive binding assay based on fluorescence polarization, LecB", "procedure": "LecA competitive binding assay was performed in presence of 2% DMSO, whereas LecB competitive binding assay had less than 0.5% DMSO present. In short, the compound dilution series were prepared in 96 well plates. 10 µL of each dilution in triplicates were mixed with 10 µL of master mix (40 µM LecA, 20 nM galactose-fluorescein reporter ligand S38 or 300 nM LecB and 20 nM S39 in TBS/Ca2+ buffer, Figure S3) in 384-well microtiter plates (Greiner Bio-One, Germany, cat no 781900). The plates were centrifuged (1 min, 500 g), sealed (EASYseal, Greiner Bio-One, cat no 676001) and incubated for 1 h in case of LecA and 6 h in case of LecB in a dark wet chamber under gentle shaking. Fluorescence was measured on a\nPheraStar FS plate reader (BMG Labtech GmbH, Germany) with excitation filters at 485 nm and emission filters at 535 nm. The measured intensities were reduced by the blank values (protein in TBS/Ca2+ buffer) and analysed with MARS Data Analysis Software (BMG Labtech GmbH, Germany). IC50 values were determined by the four-parameter variable slope model with the minimum and maximum limits of the fit fixed according to the controls in each assay"}, "[2]": {"tested_on": "P. aeruginosa PAO1 biofilms", "assay": "In vitro biofilm staining under flow conditions, compound supplementation to the medium", "format": "cell-based, Pseudomonas aeruginosa", "conditions": "500 nM in medium, 4 h, 3 mL/h, fluorescence microscope", "description": "(§1) P. aeruginosa biofilms were grown under flow conditions and observed by fluorescence microscopy in analogy to Ghanbari et al.[66] To this end, P. aeruginosa PAO1 expressing the red fluorescent protein mCherry[56] was diluted to an OD600 nm of 0.1 and injected into the microfluidics device. After a 30-min settling period, biofilms were grown under a constant laminar flow rate of 3 mL/h per channel. Following 48 h of incubation at 30 °C, dense and mature P. aeruginosa PAO1 biofilms were observed, which were then further used for analysis of the imaging probes.\nTo circumvent these technical drawbacks, the addition of compounds to the medium reservoir and retention at the biofilm was pursued. Imaging compounds were added to the medium reservoirs at a concentration of 500 nM, which were continuously pumped (3 mL/h) through the flow cell for 4 h. Compound accumulation at mature P. aeruginosa biofilms was immediately analyzed using fluorescence microscopy. Afterwards, the medium was exchanged, and the biofilms were washed for 30 min (3 mL/h, no compound) to monitor the retention (Figure 5). Furthermore, an analysis using CLSM was also performed after 4 h of accumulation without washing (Figures 5 and S22).\nFigure 5 Staining of P. aeruginosa PAO1 biofilms grown under flow conditions with compound supplementation to the medium. Biofilm staining with (A) fluorescein divalent probe 17, (B) fluorescein control 24, (C) BODIPY divalent probe 19, and (D) BDP FL azide control 18 was monitored after 4 h of accumulation under constant flow (3 mL/h) of LB media containing 500 nM of respective compound. Retention of imaging compounds is shown after a subsequent wash period for 30 min with medium (3 mL/h, no compound). Images were recorded by using a fluorescence microscope. CLSM was performed for (E) BODIPY divalent probe 19 and the control (F) BDP FL azide 18 after 4 h of accumulation. Green signal originates from fluorescently labeled probes 17 and 19 and controls 24 and 18. P. aeruginosa constitutively expressing mCherry from pMP7605^56 is shown in red. Z-Stack size, 2 μm. Scale bar = 50 μm.\nIn vitro biofilm staining under flow conditions\nThe flow cell experiment was set up in analogy to Ghanbari et al. and in this study, optimized and established for biofilm staining.25 In principle, the experiment is based on an inlet connected to a medium source, a peristaltic pump providing constant medium flow, a flow chamber enabling analysis of bacterial growth and an outlet (waste container/bottle).\nThe medium used in the flow system was LB diluted by factor 5 containing 60 µg/mL\nGm. Silicone tubings 1.6 mm (ibidi, Germany) were used transporting medium from inlet to the peristaltic pump (Watson-Marlow Fluid Technology Solutions). Stopper hoses (CarlRoth) placed in peristaltic pump were coupled to silicone tubes via connectors (ibidi, Germany).\nStopper hoses are connected to bubble traps (obtained by Claus Sternberg, DTU Copenhagen) via 0.8 mm silicone tubing (ibidi, Germany). Bubble traps were used to remove air from the medium flow and to avoid biofilm disruption. Downstream from the bubble traps, the flow cell (μ-Slide VI 0.4 ibiTreat, ibidi, Germany) was placed into the system and connected to 1.6 mm silicone tubes (ibidi, Germany). The outlet is leading the medium from flow chamber to a waste […]\nIn order to inoculate the flow cell with P. aeruginosa PAO1 mCherry (pMP7605)23 the silicone tubes upstream and downstream of the flow chamber were pinched off by using commercial plastic clamps. The medium flow was stopped and the flow cell was inoculated by injecting 300 µL of the bacterial suspension (OD600nm of 0.1) into the silicone tubing upstream of the flow chamber. For this, a cannula (0.30 x 12 mm, Sterican) was used. The injection point was sealed with silicone glue. After bacterial settling time of 30 min, the flow was started again and clamps were removed. Growth temperature was regulated by using a heat system (ibidi, […]\nGermany). […]"}, "[3]": {"tested_on": "P. aeruginosa PAO1 biofilms", "assay": "In vitro biofilm staining under flow conditions, injection method", "format": "cell-based, Pseudomonas aeruginosa", "conditions": "17 μM in channel, 10 min incubation, then flow 3 mL/h for 10-20 min", "description": "as §1\nTwo different staining methods were evaluated for the imaging of P. aeruginosa PAO1 biofilms: (I) direct injection of the imaging compounds into the flow system or (II) compound supplementation into the medium and gradual accumulation at the biofilm (Figure S18). […] The flow of compounds 17 and 24 and their arrival in the flow cells were monitored using a fluorescence microscope attached to the flow system. […]\nFigure 4 Staining of P. aeruginosa PAO1 biofilms under flow following the injection method. […] Pictures of the same aggregates were recorded prior to compound injection (t−10), during a 10 min incubation period without flow (t0) and during the wash period (constant flow, 3 mL/h) at different time points t5, t10, t15, and t20 (5, 10, 15, and 20 min) using a fluorescence microscope. […]"}, "LecA [4]": {"biological_target": "T1, LecA", "assay": "Competitive binding assay based on fluorescence polarization, LecA", "conditions": "LecA 20 µM, reporter ligand S38, 2% DMSO; read-out: IC50 (competitive binding, FP)", "description": "Next, binding of the optimized divalent ligand 17 and its synthetic precursor 16 to LecA was evaluated by fluorescence polarization-based (FP) assays,[47] SPR, and ITC. […] Therefore, fluorescent ligand 17 was analyzed in a direct binding experiment by FP. […] The dissociation constants for 16 were 47.2 ± 11.3 nM (ITC) and 47.8 ± 44.1 nM (steady-state SPR), while for 17, the values were 64.1 ± 31.1 nM and 79.3 ± 24.9 nM (steady-state SPR). For the SPR experiments, Kd was also determined by single-cycle kinetic analysis resulting in approximately five times higher affinity, but the data have limited reliability due to suboptimal fit for the kinetic curves (Figures S13B and S14).[58]−[60] […]\n137 mM NaCl, 2.6 mM KCl at pH 7.4 supplemented with 1 mM CaCl2). Protein concentration was determined by UV spectroscopy at 280 nm using a molar extinction coefficient of 27 960 M-1 cm-1 for LecA and 6 990 M-1 cm-1 for LecB.\nAll synthesized alkyne precursors (S5m, S5p, S6m, S6p, S11, 25, S16, S22 and S24) were analysed in the previously established competitive binding assays based on fluorescence polarization (Figure S2).18,19 Galactose-based compounds (S5m, S5p, S6m, S6p, S11) were evaluated against LecA and C-glycoside-based compounds […] and S16 against LecB. […]\nPheraStar FS plate reader (BMG Labtech GmbH, Germany) with excitation filters at 485 nm and emission filters at 535 nm. […]"}}}
{"smiles": "OC[C@H]1O[C@@H](Oc2ccccc2)[C@H](O)[C@@H](O)[C@H]1O", "note": "[compound 1, phenyl β-D-galactoside]", "values": [{"measurement": "Kd", "setting": "LecA [1]", "value": 8.8, "unit": "µM"}]}
{"smiles": "C#Cc1ccc(S(=O)(=O)NC[C@H]2O[C@@H](C)[C@@H](O)[C@@H](O)[C@@H]2O)s1", "note": "[compound 23]", "values": [{"measurement": "IC50", "setting": "LecB", "value": "2.4 ± 0.5", "unit": "µM"}]}
{"smiles": "O=C1OC2(c3ccc(O)cc3Oc3cc(O)ccc32)c2ccccc21", "note": "[compound 24, fluorescein, reference compound]", "values": [{"measurement": "Biofilm staining after accumulation", "setting": "[2]", "value": "did not result in any observable staining"}, {"measurement": "Retention of fluorescence at biofilm during wash", "setting": "[3]", "value": "completely disappeared after 10 min"}]}
{"smiles": "O=[N+]([O-])c1ccc(O[C@@H]2O[C@H](CO)[C@H](O)[C@H](O)[C@H]2O)cc1", "note": "[para-nitrophenyl β-D-galactoside]", "values": [{"measurement": "IC50", "setting": "LecA [4]", "value": "39.7 ± 11.5", "unit": "µM"}]}
